Measurements from US11932636B2, “RAD51 inhibitors” (Cyteir Therapeutics, Inc., priority 2019, dated 2024).

tested on: Daudi cells (AID positive); assay: Compound primary screening: cell death in AID positive Daudi cells (Cell-Titer Glo, Day 7); type: cell-based; settings: Homo sapiens, 168 h; Daudi cells, AID positive; cell death on Day 7, Cell-Titer Glo; read-out: Cellular activity in AID + (Daudi)
Method in brief: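 AID-positive Daudi cells were seeded at 1250 cells per well and treated with serially diluted compound delivered from a DMSO/media master plate. Cultures were incubated at 37 °C, and cell death was measured on Day 7 with Cell-Titer Glo luminescence.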

| Structure (SMILES) | EC50 [µM] |
| --- | --- |
| CCNS(=O)(=O)c1cc(Nc2nncs2)ccc1-c1cnc([C@H]2CC[C@H](NC(=O)OC(C)C)CC2)s1 [Compound 119, isopropyl trans-N-[4-[5-[2-(ethylsulfamoyl)-4-[(1,3,4-thiadiazol-2-yl)amino]phenyl]thiazol-2-yl]cyclohexyl]carbamate] | < 0.1 |
| CCNS(=O)(=O)c1cc(Nc2ccnc(Cl)n2)ccc1-c1cnc([C@H]2CC[C@H](NC(=O)OC(C)C)CC2)s1 [Compound 155, isopropyl trans-N-[4-[5-[4-[(2-chloropyrimidin-4-yl)amino]-2-(ethylsulfamoyl)phenyl]thiazol-2-yl]cyclohexyl]carbamate] | 0.1 to 1 |
| CCNS(=O)(=O)c1cc(Nc2nnco2)ccc1-c1cnc([C@H]2CC[C@H](NC(=O)OC(C)C)CC2)s1 [Compound 118, isopropyl trans-N-[4-[5-[2-(ethylsulfamoyl)-4-[(1,3,4-oxadiazol-2-yl)amino]phenyl]thiazol-2-yl]cyclohexyl]carbamate] | 0.1 to 1 |
| CC(C)OC(=O)N[C@H]1CC[C@H](c2ncc(-c3ccc(Nc4ncc[nH]4)cc3S(=O)(=O)N3CCC3)s2)CC1 [Compound 148, isopropyl trans-N-[4-[5-[2-(azetidin-1-ylsulfonyl)-4-(1H-imidazol-2-ylamino)phenyl]thiazol-2-yl]cyclohexyl]carbamate] | < 0.1 |
| COc1ncc(-c2ccc(-c3cnc([C@H]4CC[C@H](NC(=O)OC(C)C)CC4)s3)c(S(=O)(=O)NC(C)(C)C)c2)c(OC)n1 [Compound 8, isopropyl (trans-4-(5-(2-(N-(tert-butyl)sulfamoyl)-4-(2,4-dimethoxypyrimidin-5-yl)phenyl)thiazol-2-yl)cyclohexyl)carbamate] | 0.1 to 1 |
| CC(C)OC(=O)N[C@H]1CC[C@H](c2ncc(-c3ccc(-c4cncc(CN(C)C)c4)cc3S(=O)(=O)NC(C)(C)C)s2)CC1 [Compound 16, isopropyl (trans-4-(5-(2-(N-(tert-butyl)sulfamoyl)-4-(5-((dimethylamino)methyl)pyridin-3-yl)phenyl)thiazol-2-yl)cyclohexyl)carbamate] | 1 to 10 |
| COCCOc1ccc(-c2cnc([C@H]3CC[C@H](NC(=O)OC(C)C)CC3)s2)c(S(=O)(=O)NC(C)(C)C)c1 [Compound 31, isopropyl (trans-4-(5-(2-(N-(tert-butyl)sulfamoyl)-4-(2-methoxyethoxy)phenyl)thiazol-2-yl)cyclohexyl)carbamate] | 1 to 10 |
| CCNS(=O)(=O)c1cc(Nc2ccnc(C(C)C)n2)ccc1-c1cnc([C@H]2CC[C@H](NC(=O)OC(C)C)CC2)s1 [Compound 136, isopropyl trans-N-[4-[5-[2-(ethylsulfamoyl)-4-[(2-isopropylpyrimidin-4-yl)amino]phenyl]thiazol-2-yl]cyclohexyl]carbamate] | < 0.1 |
| CC(C)OC(=O)N[C@H]1CC[C@H](c2ncc(-c3ccc(Nc4ccc(Cl)nn4)cc3S(=O)(=O)NC(C)(C)C)s2)CC1 [Compound 173, isopropyl trans-N-[4-[5-[2-(tert-butylsulfamoyl)-4-[(6-chloropyridazin-3-yl)amino]phenyl]thiazol-2-yl]cyclohexyl]carbamate] | 0.1 to 1 |
| CC(C)OC(=O)N[C@H]1CC[C@H](c2ncc(-c3ccc(-c4ccc5occc5c4)cc3S(=O)(=O)NC(C)(C)C)s2)CC1 [Compound 11, isopropyl (trans-4-(5-(4-(benzofuran-5-yl)-2-(N-(tert-butyl)sulfamoyl)phenyl)thiazol-2-yl)cyclohexyl)carbamate] | 1 to 10 |
| CC(C)OC(=O)N[C@H]1CC[C@H](c2ncc(-c3ccc(O)cc3S(N)(=O)=O)s2)CC1 [Compound 24, isopropyl (trans-4-(5-(4-hydroxy-2-sulfamoylphenyl)thiazol-2-yl)cyclohexyl)carbamate] | 0.1 to 1 |
| CCNS(=O)(=O)c1cc(CC(=O)NC(C)C)ccc1-c1cnc([C@H]2CC[C@H](NC(=O)OC(C)C)CC2)s1 [Compound 58, isopropyl trans-N-[4-[5-[2-(ethylsulfamoyl)-4-[2-(isopropylamino)-2-oxo-ethyl]phenyl]thiazol-2-yl]cyclohexyl]carbamate] | 0.1 to 1 |
| CC(C)OC(=O)N[C@H]1CC[C@H](c2ncc(-c3ccc(N)cc3S(=O)(=O)N3CCCC3)s2)CC1 [Compound 88, isopropyl trans-N-[4-[5-(4-amino-2-pyrrolidin-1-ylsulfonyl-phenyl)thiazol-2-yl]cyclohexyl]carbamate] | 0.1 to 1 |
| CCNS(=O)(=O)c1cc(CC(=O)NCc2ccccc2)ccc1-c1cnc([C@H]2CC[C@H](NC(=O)OC(C)C)CC2)s1 [Compound 79, isopropyl trans-N-[4-[5-[4-[2-(benzylamino)-2-oxo-ethyl]-2-(ethyl-sulfamoyl)phenyl]thiazol-2-yl]cyclohexyl]carbamate] | < 0.1 |
| CCNS(=O)(=O)c1cc(Nc2cc(C(C)C)cnn2)ccc1-c1cnc([C@H]2CC[C@H](NC(=O)OC(C)C)CC2)s1 [Compound 164, isopropyl trans-N-[4-[5-[2-(ethylsulfamoyl)-4-[(5-isopropylpyridazin-3-yl)amino]phenyl]thiazol-2-yl]cyclohexyl]carbamate] | 0.1 to 1 |
| CC(C)OC(=O)N[C@H]1CC[C@H](c2ncc(-c3ccc(-c4ccc5nn[nH]c5c4)cc3S(=O)(=O)NC(C)(C)C)s2)CC1 [Compound 19, isopropyl (trans-4-(5-(4-(1H-benzo[d][1,2,3]triazol-6-yl)-2-(N-(tert-butyl)sulfamoyl)phenyl)thiazol-2-yl)cyclohexyl)carbamate] | > 10 |
| CCNS(=O)(=O)c1cc(Nc2ccnc(=O)[nH]2)ccc1-c1cnc([C@H]2CC[C@H](NC(=O)OC(C)C)CC2)s1 [Compound 156, isopropyl trans-N-[4-[5-[2-(ethylsulfamoyl)-4-[(2-hydroxypyrimidin-4-yl)amino]phenyl]thiazol-2-yl]cyclohexyl]carbamate] | 0.1 to 1 |
| CCNS(=O)(=O)c1cc(Nc2ccc(C(C)C)nn2)ccc1-c1cnc([C@H]2CC[C@H](NC(=O)OC(C)C)CC2)s1 [Compound 143, isopropyl trans-N-[4-[5-[2-(ethylsulfamoyl)-4-[(6-isopropylpyridazin-3-yl)amino]phenyl]thiazol-2-yl]cyclohexyl]carbamate] | < 0.1 |
| CCNS(=O)(=O)c1cc(C(=O)O)ccc1-c1cnc([C@H]2CC[C@H](NC(=O)OC(C)C)CC2)s1 [Compound 48, trans-3-(ethylsulfamoyl)-4-[2-[4-(isopropyloxycarbonyl-amino)cyclohexyl]thiazol-5-yl]benzoic acid] | 1 to 10 |
| CC(C)OC(=O)N[C@H]1CC[C@H](c2ncc(-c3ccccc3S(N)(=O)=O)s2)CC1 [Compound 44, isopropyl trans-N-[4-[5-(2-sulfamoylphenyl)thiazol-2-yl]cyclohexyl]carbamate] | 1 to 10 |
| CCNS(=O)(=O)c1cc(Nc2cnccn2)ccc1-c1cnc([C@H]2CC[C@H](NC(=O)OC(C)C)CC2)s1 [Compound 122, isopropyl trans-N-[4-[5-[2-(ethylsulfamoyl)-4-[(pyrazin-2-yl)amino]phenyl]thiazol-2-yl]cyclohexyl]carbamate] | < 0.1 |
| CCNS(=O)(=O)c1cc(Nc2nccn2C(C)C)ccc1-c1cnc([C@H]2CC[C@H](NC(=O)OC(C)C)CC2)s1 [Compound 154, isopropyl trans-N-[4-[5-[2-(ethylsulfamoyl)-4-[(1-isopropylimidazol-2-yl)amino]phenyl]thiazol-2-yl]cyclohexyl]carbamate] | < 0.1 |
| CNc1ccc(-c2cnc([C@H]3CC[C@H](NC(=O)OC(C)C)CC3)s2)c(S(=O)(=O)N2CCCC2)c1 [Compound 89, isopropyl trans-N-[4-[5-(4-(methylamino)-2-pyrrolidin-1-ylsulfonyl-phenyl)thiazol-2-yl]cyclohexyl]carbamate] | 0.1 to 1 |
| CCNS(=O)(=O)c1cc(Nc2ccc(C)nn2)ccc1-c1cnc([C@H]2CC[C@H](NC(=O)OC(C)C)CC2)s1 [Compound 162, isopropyl trans-N-[4-[5-[2-(ethylsulfamoyl)-4-[(6-methylpyridazin-3-yl)amino]phenyl]thiazol-2-yl]cyclohexyl]carbamate] | < 0.1 |
| Cc1c[nH]c2cc(-c3ccc(-c4cnc([C@H]5CC[C@H](NC(=O)OC(C)C)CC5)s4)c(S(=O)(=O)NC(C)(C)C)c3)ccc12 [Compound 21, isopropyl (trans-4-(5-(2-(N-(tert-butyl)sulfamoyl)-4-(3-methyl-1H-indol-6-yl)phenyl)thiazol-2-yl)cyclohexyl)carbamate] | 1 to 10 |
| CC(C)OC(=O)N[C@H]1CC[C@H](c2ncc(-c3ccc(OCCN(C)C)cc3S(=O)(=O)NC(C)(C)C)s2)CC1 [Compound 30, isopropyl (trans-4-(5-(2-(N-(tert-butyl)sulfamoyl)-4-(2-(dimethylamino)ethoxy)phenyl)thiazol-2-yl)cyclohexyl)carbamate] | > 10 |
| CCNS(=O)(=O)c1cc(CC(=O)OC)ccc1-c1cnc([C@H]2CC[C@H](NC(=O)OC(C)C)CC2)s1 [Compound 76, methyl trans-2-[3-(ethylsulfamoyl)-4-[2-[4-(isopropoxycarbonylamino)cyclohexyl]thiazol-5-yl]phenyl]acetate] | 1 to 10 |
| CCNS(=O)(=O)c1cc(COCC(C)C)ccc1-c1cnc([C@H]2CC[C@H](NC(=O)OC3COC3)CC2)s1 [Compound 52, oxetan-3-yl trans-N-[4-[5-[2-(ethylsulfamoyl)-4-(isobutoxy-methyl)phenyl]thiazol-2-yl]cyclohexyl]carbamate] | 0.1 to 1 |
| CCNS(=O)(=O)c1cc(Nc2nccn2CC(C)C)ccc1-c1cnc([C@H]2CC[C@H](NC(=O)OC(C)C)CC2)s1 [Compound 107, isopropyl trans-N-[4-[5-[2-(ethylsulfamoyl)-4-[(1-isobutylimidazol-2-yl)amino]phenyl]thiazol-2-yl]cyclohexyl]carbamate] | < 0.1 |

same assay, conditions: Homo sapiens, Daudi, 168 h, read-out: Cellular activity in AID + (Daudi)

| Structure (SMILES) | EC50 [µM] |
| --- | --- |
| CCNS(=O)(=O)c1cc(Nc2ncc(C)[nH]2)ccc1-c1cnc([C@H]2CC[C@H](NC(=O)OC(C)C)CC2)s1 [Compound 141, isopropyl trans-N-[4-[5-[2-(ethylsulfamoyl)-4-[(5-methyl-1H-imidazol-2-yl)amino]phenyl]thiazol-2-yl]cyclohexyl]carbamate] | 1 to 10 |
